Experiment [1] concerns the target T1, Pex5p-pbd (PTS1 binding domain of human Pex5p, amino acids 235–602) (Homo sapiens, UniProt P50542).
T1 construct: Pex5p-pbd; amino acids 235–602; hexa-histidine (N); made in house
The experiment can be described thus: Isothermal titration calorimetry of AGT proteins and PTS1 nonapeptides with Pex5p-pbd. The settings on record: for Kd / -TΔS / ΔG / ΔH / decrease in the enthalpic penalty (more favorable enthalpic contribution) to binding compared to the natural PTS1 sequence / N (binding stoichiometry): ITC; for Kd / -TΔS / ΔG / ΔH / N (binding stoichiometry): pH 7.4, 25 °C; for ΔCp: from the linear dependence of ΔH on temperature, 10–35 °C, pH 7.4; for decrease in the enthalpic penalty (more favorable enthalpic contribution) to binding compared to the natural PTS1 sequence: 25 °C, full-length AGT / AGT-LRM background; for N (binding stoichiometry): 20 mM Na-HEPES, 200 mM NaCl, AGT protein in cell titrated with Pex5p-pbd. As to the method:
Calorimetric measurements were carried out using a MicroCal ITC200 microcalorimeter (MicroCal, Malvern Instruments) with 205.9 μL cell volume. All the experiments were performed using 20 mM Na-HEPES (or Na-Phosphate), 200 mM NaCl, pH 7.4. […] Each titration was initiated by a 0.5 μL injection followed by 14–30 injections of 1.2–2.5 μL (spaced 150 s). Heats of dilution were determined experimentally from blank titrations. The association constants (Ka), binding enthalpy changes (ΔH), as well as the binding stoichiometries (N), were obtained by non-linear regression analysis using a one-independent-type-of-sites binding model implemented in the Origin 7.0. Software (Origin Lab Co., Northampton, MA, USA).
Background: ITC needs no label: the signal is the heat of the interaction.

In experiment [2] the test system is CHO cells. The experiment can be described thus: Confocal immunofluorescence colocalization of AGT with mitochondria (Mitotracker) in transfected CHO cells. Type of experiment: cell-based, Chinese hamster. The note with it: transiently transfected CHO cells, fixed 72 h after transfection; mean ± S.E.; SEM. As to the method:
(§1) Chinese hamster ovary (CHO) cells (ATTC, Rockville, MD USA) were grown in alpha-minimal essential medium (α-MEM, Lonza, Köln, Germany) supplemented with glutamine, penicillin/streptomycin and 5% fetal bovine serum. Cell transfections were performed using AGT cDNA variants (AGT-LRM or AGT-LRM-SKL) subcloned in pCIneo plasmids (Promega) with Transfast reagent (Promega, Madison, WI, USA), following manufacturer’s guidelines. After 24 h, cells were passed to plates containing 13 mm glass coverslips for immunofluorescence studies. Mitochondria in half the coverslips were labeled by incubation with Mitotracker (CMXRos, Invitrogen, Carlsbad, CA, USA) at the end of the culture. […]
(§2) For quantitative immune-colocalization, the system was optimized to detect two fluorescent signals in one specimen: one in the green channel detector for protein of interest AGT-LRM or AGT-LRM-SKL and the other in the red channel, for either mitochondria labeled with mitotracker or peroxisomes labeled with peroxisomal membrane protein 70 (PMP70) antibody. […] Colocalization events (or the lack thereof) were analyzed quantitatively with FluoView software (Olympus, Tokyo, Japan) and ImageJ software (NIH, Bethesda, MD, USA) with the JACoP plugin, based on a global statistic approach that conducts an intensity correlation coefficient-based examination. […]

Experiment [3] concerns CHO cells. The experiment can be described thus: Confocal immunofluorescence colocalization of AGT with peroxisomes (PMP70) in transfected CHO cells. Type of experiment: cell-based, Chinese hamster. The settings on record: mean ± S.E., SEM. As to the method:
as §1, §2

The target in a further experiment is Pex5p. The note with it: PTS1 octapeptide sequences; read-out: Kd (nM), previously determined dissociation constant; cited from earlier work.
The mark [4] stands for this setting: PTS1 nonapeptides (500 μM) titrated into Pex5p-pbd (20 μM), means of two independent titrations.
Setting [5] is: AGT proteins, mean ± s.d. of three independent titrations, SD.
[6] abbreviates: mean ± s.d. of three independent titrations, SD.

No end group written: not given here.

YQSHPRAKL [pCRA]: the affinity in experiment [1] (setting [4]), expressed as Kd, was 157 nM.

As to YVGSLKSKL [pACO], the affinity in experiment [1] (setting [4]), expressed as Kd, was 14 nM.

As to QHCPK S KL [AGT-SKL], in the experiment with CHO cells [2], the “Pearson Rr, AGT + Mitotracker” value is 0.47 ± 0.08. Besides, in experiment [1] (setting [5]), the “-TΔS” value is -11.8 ± 0.406 kcal/mol, the ΔG was -10.3 ± 0.22 kcal/mol and the ΔH came to 1.51 ± 0.19 kcal/mol. Further, the ΔCp in experiment [1] (AGT proteins) was −2.7 ± 0.1 kJ/mol·K. In addition, the “decrease in the enthalpic penalty (more favorable enthalpic contribution) to binding compared to the natural PTS1 sequence” value in experiment [1] is “about 16 kJ/mol”. Also, the “N (binding stoichiometry)” value in experiment [1] (setting [6]) was 0.8 ± 0.1. The “% Coloc (Manders' m), AGT + PMP70” value in the experiment with CHO cells [3] (CHO cells, given as fraction, split Manders' M1 in situation 2, Manders' overlap R in situation 4) came to 0.84 ± 0.08. Further, in the experiment with CHO cells [3] (transiently transfected CHO cells, fixed 72 h after transfection), the “Pearson Rr, AGT + PMP70” value amounted to 0.79 ± 0.08.

Regarding VGSL K S KL [ACO], the Kd (commonly the free concentration of one partner at which half of the binding sites on the other are occupied at equilibrium, for simple one-to-one binding) at Pex5p is 1.6 nM.

In turn, YQHCPKSKL [pAGT-SKL] gave a Kd in experiment [1] (setting [4]) of 29 nM.

Take YQHCPKKKL [pAGT]: the Kd in experiment [1] (setting [4]) was 19000 nM.

With “QHCPKKKL [AGT, alanine: glyoxylate aminotransferase, reference compound]”, in experiment [1] (setting [5]), the “-TΔS” value was -13.2 ± 0.287 kcal/mol, the dissociation constant (Kd) amounted to 1400 ± 200 nM, the ΔG was -8.01 ± 0.096 kcal/mol and the ΔH worked out at 5.19 ± 0.884 kcal/mol. Also, the ΔCp in experiment [1] (AGT proteins) was −2.5 ± 0.4 kJ/mol·K. In addition, the “N (binding stoichiometry)” value in experiment [1] (setting [6]) was found to be 1.0 ± 0.1.

Consider VAQATC KL [HMG, reference compound], for which the “decrease in the enthalpic penalty (more favorable enthalpic contribution) to binding compared to the natural PTS1 sequence” value in experiment [1] is given as “about 16 kJ/mol”. In addition, the Kd at Pex5p was 2000 nM.

The values above are taken from publication PMC4384115, “Molecular Recognition of PTS-1 Cargo Proteins by Pex5p: Implications for Protein Mistargeting in Primary Hyperoxaluria” (Biomolecules, 2015).
